According to PubChem BioAssay AID844 (SRMLSC, 2007):
The source made the active and inactive calls. No rule for the calls is given here.

Test system: MRP1 cells, doxorubicin viability shift, 10 uM compound
Test: viability protection against doxorubicin, MRP-1 line – cell-based, doxorubicin EC50 shift, dose response (AID 844)
Conditions: for EC50: measured here: doxorubicin EC50 with compound

Compound	fold increase in Dox EC50	EC50 [µM]
CCCOc1ccc(CSc2ncn[nH]2)cc1	0.89 (inactive)	4.79
Cc1nnc(NC(=O)COc2ccccc2)s1	1.25 (inactive)	6.73
CC(NC(=O)C12CC3CC(CC(C3)C1)C2)c1ccc2c(c1)OCCO2 (configuration not stated)	1.06 (inactive)	5.7
N=C(N)SCc1ccccc1Cl	0.42 (inactive)	2.25
COc1ccc(N(C(=O)Cn2cnc3ccccc32)C(C(=O)NC2CCCCC2)c2ccccc2)cc1 (configuration not stated)	0.38 (inactive)	2.07
O=C(CSc1nccn1-c1cccc(Cl)c1)Nc1ccc2c(c1)OCCO2	1.22 (inactive)	6.58
C=CCNc1oc(COc2ccc(C)cc2)nc1C#N	0.66 (inactive)	3.59
O=C(NCCc1ccc(Cl)cc1)c1cnc2n(c1=O)CCS2	0.66 (inactive)	3.55
COc1ccc(OCc2nnc(SCC(=O)N3c4ccccc4Sc4ccc(Cl)cc43)o2)cc1	1.1 (inactive)	5.92
O=C(Cc1ccccc1F)Nc1cccc2cccnc12	1.68	9.04
COc1ccc(CSC2=NCCN2)cc1Cl	0.63 (inactive)	3.4
O=C(Nc1cccn(Cc2c(Cl)cccc2Cl)c1=O)c1c(Cl)cccc1Cl	1.07 (inactive)	5.79
Cc1cc(C)n2nc(C(=O)Nc3nnc(C4CC4)s3)nc2n1	0.87 (inactive)	4.7
Cc1ccc(OCc2nnc(SC3CCc4ccccc4C3=O)n2C)cc1 (configuration not stated)	1.22 (inactive)	6.56
CN(Cc1ccccc1)c1oc(COc2ccccc2F)nc1C#N	0.66 (inactive)	3.56
CC(C)(C)C1CCc2c(sc(NC(=O)c3cccs3)c2C(=O)N2CCCCC2)C1 (configuration not stated)	0.96 (inactive)	5.2
N#Cc1nc(COc2cccc(Cl)c2)oc1N1CCCC1	0.93 (inactive)	5.04
Cc1ccc(-c2cc(-c3ccccc3)no2)c(O)c1	0.59 (inactive)	3.2
CCCNC(=O)c1oc2ccc3c(c2c1C)C(=O)CC(C)(C)O3	0.84 (inactive)	4.55

Compound	fold increase in Dox EC50	EC50 [µM]
CCOC(=O)C1=C(C)Nc2sc(C(=O)c3ccc(OC)cc3)c(N)c2C1c1ccc(C(=O)OC)cc1 (configuration not stated)	0.2 (inactive)	1.09
O=C(CC(=O)N/N=C/c1ccccc1O)NCc1cccnc1	0.39 (inactive)	2.08
O=C(CCN1C(=O)/C(=C\c2ccccc2)SC1=S)NNC(=O)c1cccnc1	1.2 (inactive)	6.49
CC(/C=C1\SC(=O)N(CC(=O)Nc2ccc(O)cc2)C1=O)=C\c1ccccc1	0.68 (inactive)	3.7
CCOc1ccc2c(c1)c(N=O)c(O)n2C	0.58 (inactive)	3.14
COc1ccc(/C=C2/N=C(SC3CCOC3=O)N(c3cccc(OC)c3)C2=O)cc1 (configuration not stated)	0.68 (inactive)	3.67
O=C(NC1CCCC1)C(c1c[nH]c2ccccc12)N(C(=O)Cn1nnc(-c2ccc(Cl)cc2)n1)c1ccccc1 (configuration not stated)	0.99 (inactive)	5.35
CCn1c(COc2ccc(Cl)cc2)nnc1SCc1nc2ccccc2[nH]1	0.35 (inactive)	1.87
C=CCOC(=O)C(C#N)c1nc2ccccc2nc1N1CCN(c2ccccc2OCC)CC1 (configuration not stated)	0.56 (inactive)	3.05
Cc1ccc(C(c2sc3ncnn3c2O)N2CCC(C)CC2)cc1 (configuration not stated)	0.72 (inactive)	3.87
Brc1ccc(CSc2ncn[nH]2)cc1	1 (inactive)	5.39
CCCCc1ccc(NC(=O)c2c(C)noc2C)cc1	1.23 (inactive)	6.63
CCN(CC)C(=O)C(=O)c1c(-c2ccccc2)[nH]c2ccccc12	2.22	12
Cc1cc(C(=O)COC(=O)c2ccc3c(c2)OCO3)c(C)n1Cc1cccs1	1.06 (inactive)	5.7
COc1ccc(C(=O)NCc2ccccc2)cc1S(=O)(=O)N1CCCc2ccccc21	0.56 (inactive)	3.02
Cc1ccc(NC(=O)CCC(=O)N/N=C/c2cccs2)cc1C	0.97 (inactive)	5.23
COc1ccc(C(=O)Nc2ccccc2Cc2ccccc2)c(OC)c1	0.66 (inactive)	3.54
COC(=O)C1C(=O)c2c([nH]c(C(=O)OC3CCCCC3)c2C)CC1C (configuration not stated)	0.69 (inactive)	3.74
CCOc1ccccc1Nc1ncnc2c1cnn2-c1ccccc1	0.57 (inactive)	3.08

Compound	fold increase in Dox EC50	EC50 [µM]
Fc1ccc(-n2nnnc2-c2cnc(-c3cccs3)nc2C(F)(F)F)cc1	0.6 (inactive)	3.24
COc1ccc(C(C)=O)cc1CSc1nnc(Nc2ccccc2C)s1	0.75 (inactive)	4.04
Cc1ccc(/C=C2\SC(=S)N(c3c(C)n(C)n(-c4ccccc4)c3=O)C2=O)cc1	0.97 (inactive)	5.23
O=C(CCc1ccccc1)N/N=C/c1cc(Br)ccc1O	0.12 (inactive)	0.631
O=C(NC(=S)Nc1ccccc1N1CCOCC1)c1ccc(-c2cccc(Cl)c2)o1	0.41 (inactive)	2.22
N#Cc1nc(COc2ccccc2)oc1N1CCCC1	0.77 (inactive)	4.13
O=C(Cn1c(COc2ccc(Cl)cc2)nc2ccccc21)NCC(F)(F)F	0.75 (inactive)	4.04
CCOC(=O)c1ccc(N2CN=C3SCC(=O)N3C2)cc1	0.3 (inactive)	1.6
CCC(=O)N1CCN=C1SCc1ccc(F)cc1	0.75 (inactive)	4.07
CCCOC(=S)NC(=O)c1sc2ccccc2c1Cl	1.25 (inactive)	6.75
CC(C)(C)c1cc(Br)ccc1OCC(=O)Nc1ncn[nH]1	0.89 (inactive)	4.78
Cc1ccc(S(=O)(=O)N2CCN(c3nc(C)c4c(c3C#N)CC(C)(C)OC4)CC2)cc1	0.72 (inactive)	3.91
CCc1noc(C)c1C(=O)Nc1nc(-c2cc(C)ccc2C)c(C)s1	0.83 (inactive)	4.48
Cc1ccc(NC(=O)CNC(=O)c2cccs2)cc1S(=O)(=O)Nc1ccc(Cl)cc1	1.11 (inactive)	5.97
COc1cccc(C2C(C(=O)Nc3nc4ccccc4s3)=C(C)NC3=C2C(=O)CC(C)(C)C3)c1OC (configuration not stated)	0.3 (inactive)	1.6
CCOc1ccccc1CNC(=O)c1cc2oc3ccccc3c2n1CC	1.24 (inactive)	6.7
CC(=O)/C(C#N)=C1\NC(=O)C(Cc2ccc(C)c(C)c2)S1 (configuration not stated)	1.19 (inactive)	6.44
O=C(NNC1=C(C(=O)C(F)(F)F)CCC1)c1ccc(Cl)cc1	0.87 (inactive)	4.7
